# Experimental data taken from patent publication US8598145B2, “Mitochondrially delivered anti-cancer compounds” (priority 2008, dated 2013).
# Tests used:
# LNCaP, PC-3 = conditions: Shiau et al, 2006; cited from earlier work
# MCF7 = conditions: Arya et al; cited from earlier work
# [1] = tested on: neoplastIc + SA mammary epithelial cells; conditions: cited from earlier work
# B16(F10) = conditions: cited from earlier work
# [2] = tested on: Ras-transformed B9 cells with a defective Complex II; experiment: Apoptosis in Ras-transformed B1 and B9 cells (FIG. 4C); format: cell-based, Chinese hamster
# Method: 4C—After 24 h of treatment with Complex II targeting drugs TTFA or MitoVES, Ras transformed B1 and B9 cells were assessed for apoptosis using the Annexin V binding method.
# The following cell lines used in this study were obtained from ATCC, unless specified otherwise: Human T lymphoma cells Jurkat, human mesothelioma cells Meso-I, MM-BI, Ist-Mes, Ist-Mes-2 (Pass, H. I. et al. Characteristics of nine newly derived mesothelioma cell lines. Ann. Thorac. Surg. 59, 835-844 (1995)), human breast cancer cells MCF-7 (erbB2-low) and MDA-MB-453 (erbB2-high), human colorectal cells HCT-116, human hepatocarcinoma cells Huh-7, mouse mesothelioma cells AE17 (Jackaman, C. et al. IL-2 intratumoral immunotherapy enhances CD8+ T cells that mediate destruction of tumor cells and tumor-associated vasculature: a novel mechanism for IL-2. J. Immunol. 171, […] (2003), human non-malignant mesothelial cells Met-5A, […] (Claycomb, W. C. et al. HL-1 cells: a cardiac muscle cell line that contracts and retains phenotypic characteristics of the adult cardiomyocyte. Proc. Natl. Acad. Sci. USA 95, 2979-2984 […]) and H9c2, and the human endothelial-like cells EAhy926 (Edgell, C. J., McDonald, C. C. & Graham, J. B. Permanent cell line expressing human factor VIII-related antigen established by hybridization. Proc. Natl. Acad. Sci. USA 80, 3734-3737 (1983)). Jurkat cells were grown in the RPMI medium while DMEM was used for other malignant cell lines and for Met-5A cells, supplemented with 10% FCS and antibiotics. HL-1 cells, maintained in fibronectin/gelatine-coated dishes, were grown in the Claycomb medium supplemented with noradrenalin (Claycomb, W. C. et al. HL-1 cells: a cardiac muscle cell line that contracts and retains phenotypic characteristics of the adult cardiomyocyte. Proc. Natl. Acad. Sci. USA 95, 2979-2984 […]), EAhy926 cells were grown in complete DMEM supplemented with HAT (Edgell, C. J., McDonald, C. C. & Graham, J. B. Permanent cell line expressing human factor VIII-related antigen established by hybridization. Proc. Natl. Acad. Sci. USA 80, 3734-3737 (1983)). Cells deficient in mtDNA (ρ^0 phenotype) were prepared as detailed in Weber, T. et al., (Mitochondria play a central role in apoptosis induced by α-tocopheryl succinate, an agent with anticancer activity. Comparison with receptor-mediated pro-apoptotic signaling. Biochemistry 42, 4277-4291 (2003)). Acquisition of the ρ^0 phenotype was confirmed by lack of expression by the cells of the mtDNA-encoded cytochrome c oxidase subunit II (COXII not shown). […]
# Jurkat = experiment: MTT viability assay (IC50); format: cell-based, human
# Source text: (§1) The following cell lines used in this study were obtained from ATCC, unless specified otherwise: Human T lymphoma cells Jurkat, human mesothelioma cells Meso-I, MM-BI, Ist-Mes, Ist-Mes-2 (Pass, H. I. et al. Characteristics of nine newly derived mesothelioma cell lines. Ann. Thorac. Surg. 59, 835-844 (1995)), human breast cancer cells MCF-7 (erbB2-low) and MDA-MB-453 (erbB2-high), human colorectal cells HCT-116, human hepatocarcinoma cells Huh-7, mouse mesothelioma cells AE17 (Jackaman, C. et al. IL-2 intratumoral immunotherapy enhances CD8+ T cells that mediate destruction of tumor cells and tumor-associated vasculature: a novel mechanism for IL-2. J. Immunol. 171, […] (2003), human non-malignant mesothelial cells Met-5A, […] (Claycomb, W. C. et al. HL-1 cells: a cardiac muscle cell line that contracts and retains phenotypic characteristics of the adult cardiomyocyte. Proc. Natl. Acad. Sci. USA 95, 2979-2984 […]) and H9c2, and the human endothelial-like cells EAhy926 (Edgell, C. J., McDonald, C. C. & Graham, J. B. Permanent cell line expressing human factor VIII-related antigen established by hybridization. Proc. Natl. Acad. Sci. USA 80, 3734-3737 (1983)). Jurkat cells were grown in the RPMI medium while DMEM was used for other malignant cell lines and for Met-5A cells, supplemented with 10% FCS and antibiotics. HL-1 cells, maintained in fibronectin/gelatine-coated dishes, were grown in the Claycomb medium supplemented with noradrenalin (Claycomb, W. C. et al. HL-1 cells: a cardiac muscle cell line that contracts and retains phenotypic characteristics of the adult cardiomyocyte. Proc. Natl. Acad. Sci. USA 95, 2979-2984 […]), EAhy926 cells were grown in complete DMEM supplemented with HAT (Edgell, C. J., McDonald, C. C. & Graham, J. B. Permanent cell line expressing human factor VIII-related antigen established by hybridization. Proc. Natl. Acad. Sci. USA 80, 3734-3737 (1983)). Cells deficient in mtDNA (ρ^0 phenotype) were prepared as detailed in Weber, T. et al., (Mitochondria play a central role in apoptosis induced by α-tocopheryl succinate, an agent with anticancer activity. Comparison with receptor-mediated pro-apoptotic signaling. Biochemistry 42, 4277-4291 (2003)). Acquisition of the ρ^0 phenotype was confirmed by lack of expression by the cells of the mtDNA-encoded cytochrome c oxidase subunit II (COXII not shown). Chinese hamster lung fibroblasts deficient in complex I (B10 cells) (See, B. B. et al. Molecular remedy of complex I defects: rotenone-insensitive internal NADH-quinone oxidoreductase of Saccharomyces cerevisiae mitochondria restores the NADH oxidase activity of complex I-deficient mammalian cells. Proc. Natl. Acad. Sci. USA 95, 9167-9171 (1998)) and complex II (CybL^−/−; B9 cells) (Oostveen, F. G., Au, H. C., Meijer, P. J. & Scheffler, I. E. A Chinese hamster mutant cell line with a defect in the integral membrane protein CII-3 of complex II of the mitochondrial electron transport chain. J. Biol. Chem. 270: 26104-26108 (1995)) as well as the parental cells (B1 cells) (Oostveen, F. G., Au, H. C., Meijer, P. J. & Scheffler, I. E. A Chinese hamster mutant cell line with a defect in the integral membrane protein CII-3 of complex II of the mitochondrial electron transport chain. J. Biol. Chem. 270: 26104-26108 (1995)) were grown in DMEM with 10% FCS, antibiotics, 10 mg/ml glucose and non-essential aminoacids.
# (§2) Toxicity of α-TOS, VE11S (“VES”), MitoVE3S, MitoVE5S, MitoVE7S, MitoVE9S, MitoVE11S (“MitoVES”), MitoVE11AE (“MitoVEAE”), MitoVE11F (“MitoVEF”), MitoVE11M (“MitoVEM”), and VES4TPP towards cancer cells was assessed on the basis of IC50, as detailed in Turanek, J., et al. ((2008). Liposomal formulation of vitamin E analogs as an efficient and selective anti-cancer treatment. Clin. Cancer Res. (submitted)). […]
# MCF-7 = experiment: MTT viability assay (IC50); format: cell-based, human; conditions: MCF-7, ~60% confluency
# Source text: as §1, §2
# Meso-2 = experiment: MTT viability assay (IC50); format: cell-based, human; conditions: Meso-2, ~60% confluency
# Source text: as §1, §2
# H9c2 = experiment: MTT viability assay (IC50); format: cell-based, rat; conditions: H9c2, ~60% confluency
# Source text: as §1, §2
# HL-1 = experiment: MTT viability assay (IC50); format: cell-based, rat; conditions: HL-1, ~60% confluency
# Source text: as §1, §2
# [3] = target: T1, α-tocopherol transfer protein (α-TTP) (Rattus norvegicus, UniProt P41034); conditions: Hosomi et al 1997; cited from earlier work
# T1 sequence (P41034 1-278): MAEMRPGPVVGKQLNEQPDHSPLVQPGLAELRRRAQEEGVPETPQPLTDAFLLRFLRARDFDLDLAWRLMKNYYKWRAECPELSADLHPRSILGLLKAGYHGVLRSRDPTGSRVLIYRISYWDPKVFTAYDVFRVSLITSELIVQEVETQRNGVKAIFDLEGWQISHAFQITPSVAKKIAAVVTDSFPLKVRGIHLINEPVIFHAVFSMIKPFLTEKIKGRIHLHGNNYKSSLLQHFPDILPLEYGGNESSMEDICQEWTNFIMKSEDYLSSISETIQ
# [4] = Table VI: Jurkat 0.5 × 10^6 per ml, analogs added as EtOH solution, MTT
compound,measurement,setting,value
Cc1c(C)c2c(c(C)c1OC(=O)CCC(=O)O)CCC(C)(CCCC(C)CCCC(C)C)O2 (centres unmarked) [Nr 43],IC50,"LNCaP, PC-3",4 to 9 µM
Cc1c(C)c2c(c(C)c1OCCC(=O)O)CCC(C)(CCCC(C)CCCC(C)C)O2 (centres unmarked) [Nr 44],IC50,"LNCaP, PC-3",4 to 8 µM
Cc1c(C)c2c(c(C)c1OC(=O)CCC(=O)O)CCC(C)(C)O2 [Nr 46],IC50,"LNCaP, PC-3",> 100 µM
Cc1c(C)c2c(c(C)c1OC(=O)C(N)CCCCN)CCC(C)(CO)O2 (centres unmarked) [Nr 47],IC50,MCF7,194 µM
CCCCCOCC1(C)CCc2c(C)c(OC(=O)C(N)CCCCN)c(C)c(C)c2O1 (centres unmarked) [Nr 48],IC50,MCF7,22 µM
CCCCC(=O)OCC1(C)CCc2c(C)c(OC(=O)C(N)CCCCN)c(C)c(C)c2O1 (centres unmarked) [Nr 49],IC50,MCF7,15 µM
CC(C)=CCCC(C)=CCCC(C)=CCCC1(C)CCc2cc(O)c(C)c(C)c2O1 (centres unmarked) [Nr 56],IC50,[1],4 µM
same,IC50,B16(F10),20 µM
CC(C)=CCCC(C)=CCCC(C)=CCCC1(C)CCc2cc(O)cc(C)c2O1 (centres unmarked) [Nr 59],IC50,B16(F10),10 µM
CC(C)=CCCC(C)=CCCC(C)=CCCC1(C)CCc2cc(O)ccc2O1 (centres unmarked) [Nr 60],IC50,B16(F10),0.9 µM
"O=C(CC(=O)C(F)(F)F)c1cccs1 [TTFA, reference compound]",sensitivity to apoptosis of Ras-transformed B9 cells compared to Ras-transformed B1 cells,"[2]; 24 h treatment, Annexin V binding",much less sensitive
same,sensitivity after reconstitution of Complex II function (human SDHC) in Ras-transformed B9 cells,[2]; B9 cells transfected to express human SDHC,restored the sensitivity
Cc1c(C)c2c(c(C)c1OC(=O)CCC(=O)OCCCC[P+](c1ccccc1)(c1ccccc1)c1ccccc1)CCC(C)(CCCC(C)CCCC(C)CCCC(C)C)O2 (centres unmarked) [VES4TPP],IC50,"Jurkat; Jurkat, treated at 0.5 × 10^6 per ml, MTT viability curves",21 ± 5 µM
same,IC50,Jurkat; [4],21 ± 5 µM
same,IC50,MCF-7,19 ± 3 µM
same,IC50,Meso-2,28 ± 6 µM
same,IC50,H9c2,> 100 µM
same,IC50,HL-1,> 100 µM
"Cc1c(C)c2c(c(C)c1O)CC[C@@](C)(CCC[C@H](C)CCC[C@H](C)CCCC(C)C)O2 [α-TOH, α-tocopherol, reference compound]",IC50,Jurkat; [4],> 100 µM
same,relative affinities for α-TTP,[3],100%
Cc1cc(O)c(C)c2c1O[C@](C)(CCC[C@H](C)CCC[C@H](C)CCCC(C)C)CC2 [β-tocopherol],relative affinities for α-TTP,[3],38%
Cc1c(O)cc2c(c1C)O[C@](C)(CCC[C@H](C)CCC[C@H](C)CCCC(C)C)CC2 [γ-tocopherol],relative affinities for α-TTP,[3],9%
Cc1cc(O)cc2c1O[C@](C)(CCC[C@H](C)CCC[C@H](C)CCCC(C)C)CC2 [δ-tocopherol],relative affinities for α-TTP,[3],2%
